From paper PMC10046946, “Novel Phthalic-Based Anticancer Tyrosine Kinase Inhibitors: Design, Synthesis and Biological Activity” (Current Issues in Molecular Biology, 2023)

Key:
[1] = system: K562 (chronic myelogenous leukemia); experiment: MTT cell proliferation assay, K562; assay type: cell-based; conditions: Homo sapiens, K562, 72 h of exposition, read-out: Anti-proliferative activity IC50, K562
Method: (§1) Tests to determine the effects of the synthesized compounds on cell viability and the half-maximal inhibitory concentration (IC50) were performed using the MTT assay, as described in our prior work.
(§2) The target compounds 5, 6, 8–12, 14, 15, 17–22 and 24–26 were tested for antiproliferative activity against six cancer cell lines: K562 (chronic myelogenous leukemia), HL-60 (promyelocytic leukemia), MCF-7 (breast adenocarcinoma), HepG2 (human liver cancer), A549 (lung carcinoma) and OKP-GS (renal cell carcinoma). The RPMI 1788 cells (B lymphocyte, human) were used as a control to evaluate the system toxicity of the studied compounds to normal cells. Sorafenib, nilotinib and lapatinib were utilized as reference standards for comparison.

[2] = system: MCF-7 (breast adenocarcinoma); experiment: MTT cell proliferation assay, MCF-7; assay type: cell-based; conditions: Homo sapiens, MCF7, MCF-7, 72 h of exposition, read-out: Anti-proliferative activity IC50, MCF-7
Method: as §1, §2

[3] = system: HL-60 (promyelocytic leukemia); experiment: MTT cell proliferation assay, HL-60; assay type: cell-based; conditions: Homo sapiens, HL-60, 72 h of exposition, read-out: Anti-proliferative activity IC50, HL-60
Method: as §1, §2

[4] = system: RPMI 1788 cells (B lymphocyte, human); experiment: MTT cell proliferation assay, normal RPMI 1788 cells; assay type: cell-based; conditions: normal human lymphoblastoid cells RPMI 1788, 72 h of exposition, read-out: Anti-proliferative activity IC50, RPMI 1788
Method: as §1, §2

[5] = system: A549 (lung carcinoma); experiment: MTT cell proliferation assay, A549; assay type: cell-based; conditions: Homo sapiens, A549, 72 h of exposition, read-out: Anti-proliferative activity IC50, A549
Method: as §1, §2

[6] = system: OKP-GS (renal cell carcinoma); experiment: MTT cell proliferation assay, OKP-GS; assay type: cell-based; conditions: 72 h of exposition, read-out: Anti-proliferative activity IC50, OKP-GS
Method: as §1, §2

[7] = system: HepG2 (human liver cancer); experiment: MTT cell proliferation assay, HepG2; assay type: cell-based; conditions: Homo sapiens, HepG2, 72 h, HepG2, 72 h of exposition, read-out: Anti-proliferative activity IC50, HepG2
Method: as §1, §2

[8] = system: K562 cells; experiment: Annexin V-FITC/PI apoptosis assay; assay type: cell-based; conditions: 48 h
Method: K562 tumor cells were plated on a 6-well plate at a density of 400,000 per well. Test compounds 5, 14 and 15 were added at concentrations of 1, 5 and 10 μM in duplicate for 48 h. The methodology and analysis of the obtained data were performed as described in our prior work.
The effects of compounds 5, 14 and 15 on cell apoptosis were examined using the Annexin V-FITC Kit (Beckman Coulter, Brea, CA, USA) according to the protocols provided. The Annexin V-FITC Kit is an apoptosis detection kit based on the binding properties of annexin V to phosphatidylserine (PS) and on the DNA intercalating capability of propidium iodide (PI). K562 cells were treated with compound 5, 14 and 15 at 1, 5 and 10 μM for 48 h, after which annexin V/PI binding was measured by flow cytometry.

[9] = system: K562 cells; experiment: Cell cycle analysis (propidium iodide, flow cytometry); assay type: cell-based; conditions: 48 h
Method: Tumor cells were seeded on a 6-well plate at a density of 400,000 per well for K562. Test compounds 5, 14 and 15 were added at concentrations of 1, 5 and 10 μM in duplicate for 48 h. The methodology and analysis of the obtained data were performed as described in our prior work.
As shown above, compounds 5, 14 and 15 had significant antiproliferative activities, which is why their influences on the cell cycle and apoptosis level were determined, with the aim of understanding whether these effects are cytostatic or cytotoxic. In the cell cycle experiments, K562 cells were used. […] For the determination of changes in the distribution of cells in the phases of the cell cycle, the widely employed method of staining the cells with propidium iodide was used.

[10] = system: K562 cell line; experiment: ROS determination (DCFH-DA, flow cytometry); assay type: cell-based; conditions: 48 h
Method: The redox status was assessed using the K562 cell line. […] Then, the cells were washed to remove the 2′,7′-dichlorodihydrofluorescein diacetate by centrifugation at 1000 rpm for 5 min. The measurements were conducted using a Cytomics FC500 Beckman Coulter flow cytometer (FL1 channel for DCF).

[11] = biological target: T1, PDGFRα (Homo sapiens, UniProt P16234); experiment: ADP-Glo kinase assay, PDGFRα; assay type: biochemical
T1 construct: purchased Promega
Method: (§3) The ADP-Glo kinase assay (Promega, Madison, WI, USA) was used to screen compounds 5, 8–10, 14, 17, 19 and 24 for the tyrosine kinase (Kinase Selectivity Profiling System TK-1, Promega, Madison, WI, USA) and serine/threonine kinase (Kinase Selectivity Profiling System Other/CK-1, Promega, Madison, WI, USA) inhibition effects according to the manufacturer’s technical manual. The luminescence data were analyzed as described in our prior work.
(§4) The selectivity of the potential kinase inhibitor against a specific protein kinase or a specific family of kinases was investigated using the Kinase Selectivity Profiling System TK-1, Other/CK-1 and ADP-Glo™ Kinase assay kit (Promega, Madison, WI, USA).

[12] = biological target: T2, PDGFRβ (Homo sapiens, UniProt P09619); experiment: ADP-Glo kinase assay, PDGFRβ; assay type: biochemical
T2 construct: purchased Promega
Method: as §3, §4

T1 sequence (P16234 24-1089): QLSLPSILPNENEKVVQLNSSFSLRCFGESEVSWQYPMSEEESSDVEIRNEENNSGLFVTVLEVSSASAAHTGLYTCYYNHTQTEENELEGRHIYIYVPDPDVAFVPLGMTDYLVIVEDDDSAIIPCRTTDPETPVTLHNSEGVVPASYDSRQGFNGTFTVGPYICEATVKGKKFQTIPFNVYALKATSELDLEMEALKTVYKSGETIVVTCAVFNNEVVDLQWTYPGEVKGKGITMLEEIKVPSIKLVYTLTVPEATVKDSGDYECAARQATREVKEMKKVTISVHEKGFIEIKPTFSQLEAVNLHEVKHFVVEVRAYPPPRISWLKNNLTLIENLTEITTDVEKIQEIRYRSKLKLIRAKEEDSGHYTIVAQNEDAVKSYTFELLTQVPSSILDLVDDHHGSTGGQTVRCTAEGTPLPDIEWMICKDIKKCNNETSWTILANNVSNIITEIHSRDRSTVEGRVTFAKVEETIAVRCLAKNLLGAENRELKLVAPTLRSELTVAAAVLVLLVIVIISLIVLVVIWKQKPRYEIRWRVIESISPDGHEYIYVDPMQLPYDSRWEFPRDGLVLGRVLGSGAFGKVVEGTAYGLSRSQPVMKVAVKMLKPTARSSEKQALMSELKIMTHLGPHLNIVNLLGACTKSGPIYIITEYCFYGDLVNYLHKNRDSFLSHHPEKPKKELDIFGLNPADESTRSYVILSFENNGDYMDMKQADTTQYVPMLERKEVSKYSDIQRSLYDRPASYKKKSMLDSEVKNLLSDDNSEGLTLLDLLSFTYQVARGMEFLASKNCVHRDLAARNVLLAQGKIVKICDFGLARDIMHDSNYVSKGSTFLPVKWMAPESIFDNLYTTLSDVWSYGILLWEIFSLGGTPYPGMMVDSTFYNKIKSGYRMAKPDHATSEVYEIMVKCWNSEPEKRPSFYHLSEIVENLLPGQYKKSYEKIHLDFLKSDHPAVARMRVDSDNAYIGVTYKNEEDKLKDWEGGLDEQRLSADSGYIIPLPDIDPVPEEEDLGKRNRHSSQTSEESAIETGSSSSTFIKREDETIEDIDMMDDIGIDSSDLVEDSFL
T2 sequence (P09619 33-1106): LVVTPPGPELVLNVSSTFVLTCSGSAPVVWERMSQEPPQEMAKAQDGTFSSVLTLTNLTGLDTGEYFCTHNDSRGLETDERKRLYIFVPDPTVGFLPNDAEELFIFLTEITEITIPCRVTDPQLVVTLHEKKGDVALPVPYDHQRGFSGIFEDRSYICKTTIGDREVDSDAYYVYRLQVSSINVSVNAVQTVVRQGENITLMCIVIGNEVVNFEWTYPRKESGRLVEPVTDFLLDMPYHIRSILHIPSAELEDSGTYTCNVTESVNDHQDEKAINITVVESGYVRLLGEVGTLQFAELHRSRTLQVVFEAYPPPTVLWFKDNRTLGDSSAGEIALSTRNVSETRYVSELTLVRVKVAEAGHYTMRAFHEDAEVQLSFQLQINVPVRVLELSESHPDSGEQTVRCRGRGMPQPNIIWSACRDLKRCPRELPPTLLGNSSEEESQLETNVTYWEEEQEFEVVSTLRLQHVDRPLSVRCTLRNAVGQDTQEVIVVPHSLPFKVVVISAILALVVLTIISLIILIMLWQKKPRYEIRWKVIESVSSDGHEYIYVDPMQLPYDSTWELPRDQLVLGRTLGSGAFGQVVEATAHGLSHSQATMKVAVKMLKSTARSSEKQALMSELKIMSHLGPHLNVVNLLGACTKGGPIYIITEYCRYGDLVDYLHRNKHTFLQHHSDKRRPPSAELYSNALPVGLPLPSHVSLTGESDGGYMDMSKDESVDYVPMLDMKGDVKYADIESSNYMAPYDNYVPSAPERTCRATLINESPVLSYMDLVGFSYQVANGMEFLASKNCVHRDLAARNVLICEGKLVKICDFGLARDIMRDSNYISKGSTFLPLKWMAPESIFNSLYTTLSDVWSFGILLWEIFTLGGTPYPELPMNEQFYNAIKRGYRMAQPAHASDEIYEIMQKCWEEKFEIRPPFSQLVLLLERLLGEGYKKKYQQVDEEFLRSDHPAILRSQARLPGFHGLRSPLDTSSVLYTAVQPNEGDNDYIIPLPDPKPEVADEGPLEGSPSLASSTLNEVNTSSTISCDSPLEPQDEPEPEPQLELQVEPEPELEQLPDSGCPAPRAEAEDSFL

Row | IC50 [1] [µM] | IC50 [2] [µM] | IC50 [3] [µM] | IC50 [5] [µM] | IC50 [6] [µM] | melting point [°C] | IC50 [7] [µM] | SMILES | IC50 [4] [µM] | also measured
1 | > 50 | > 50 | > 50 | > 50 | > 50 | 295 to 296 | > 50 | Cc1cn(-c2cc(NC(=O)c3ccc(C(=O)Nc4cc(-n5cnc(C)c5)cc(C(F)(F)F)c4)cc3)cc(C(F)(F)F)c2)cn1 [Compound 22, N1,N4-bis(3-(4-methyl-1H-imidazol-1-yl)-5-(trifluoromethyl)phenyl)terephthalamide] | > 50 | –
2 | 22.2 ± 2.12 | 49.4 ± 0.67 | 26 ± 4.15 | > 50 | > 50 | 110 to 113 | 38.6 ± 1.11 | Cc1cn(-c2cc(NC(=O)c3ccc(C(=O)N4CCN(C(=O)c5cccc(F)c5)CC4)cc3)cc(C(F)(F)F)c2)cn1 [Compound 27, 4-(4-(3-fluorobenzoyl)piperazine-1-carbonyl)-N-(3-(4-methyl-1H-imidazol-1-yl)-5-(trifluoromethyl)phenyl)-benzamide] | 24.08 ± 0.07 | –
3 | 26.9 | > 50 | > 50 | > 50 | 34.4 ± 2.52 | – | 45.9 ± 1.83 | CNC(=O)c1cc(Oc2ccc(NC(=O)c3ccc(C(=O)Nc4cccc(C(F)(F)F)c4)cc3)cc2)ccn1 [Compound 18, N1-(4-((2-(methylcarbamoyl)pyridin-4-yl)oxy)phenyl)-N4-(3-(trifluoromethyl)phenyl)terephthalamide] | 46 ± 1.76 | –
4 | 18.5 ± 0.73 | 48.8 ± 1.17 | 26.4 ± 1.73 | > 50 | > 50 | 142 to 145 | 44.3 ± 4.79 | Cc1cn(-c2cc(NC(=O)c3ccc(C(=O)N4CCN(C(=O)c5ccccc5F)CC4)cc3)cc(C(F)(F)F)c2)cn1 [Compound 26, 4-(4-(2-fluorobenzoyl)piperazine-1-carbonyl)-N-(3-(4-methyl-1H-imidazol-1-yl)-5-(trifluoromethyl)phenyl)-benzamide] | 23.97 ± 0.03 | –
5 | – | – | – | – | – | 212 to 214 | – | COc1ccc(C(=O)N2CCN(C(=O)c3ccc(C(=O)Nc4cc(-n5cnc(C)c5)cc(C(F)(F)F)c4)cc3)CC2)cc1 [Compound 25, 4-(4-(4-methoxybenzoyl)piperazine-1-carbonyl)-N-(3-(4-methyl-1H-imidazol-1-yl)-5-(trifluoromethyl)-phenyl)benzamide] | – | –
6 | 10.5 ± 2.54 | 27.38 ± 0.26 | 34.8 ± 4.7 | > 50 | > 50 | 130 to 135 | 45.8 ± 1.76 | Cc1cn(-c2cc(NC(=O)c3cccc(C(=O)N4CCN(C(=O)c5cccc(F)c5)CC4)c3)cc(C(F)(F)F)c2)cn1 [Compound 15, 3-(4-(3-Fluorobenzoyl)piperazine-1-carbonyl)-N-(3-(4-methyl-1H-imidazol-1-yl)-5-(trifluoromethyl)phenyl)-benzamide] | 29.4 ± 1.79 | normal live cells (living cells) ([8]; K562, 1 µM): 74.91%; normal live cells (living cells) ([8]; K562, 5 µM): 68.41%; normal live cells (living cells) ([8]; K562, 10 µM): 60.97%; Apoptosis, % (cell cycle analysis) ([9]; K562, 1 µM): 17.90%; G1, % ([9]; K562, 1 µM): 30.15%; G2/M, % ([9]; K562, 1 µM): 48.54%; S, % ([9]; K562, 1 µM): 21.31%; Apoptosis, % (cell cycle analysis) ([9]; K562, 5 µM): 20.54%; G1, % ([9]; K562, 5 µM): 34.76%; G2/M, % ([9]; K562, 5 µM): 53.65%; S, % ([9]; K562, 5 µM): 11.59%; Apoptosis, % (cell cycle analysis) ([9]; K562, 10 µM): 32.72%; G1, % ([9]; K562, 10 µM): 28.85%; G2/M, % ([9]; K562, 10 µM): 62.99%; S, % ([9]; K562, 10 µM): 8.16%; ROS Level, % of Control ([10]; K562, 5 µM): 92.89 % of Control; ROS Level, % of Control ([10]; K562, 10 µM): 87.87 % of Control; ROS Level, % of Control ([10]; K562, 20 µM): 94.07 % of Control
7 | – | – | – | – | – | 144 to 146 | – | COc1ccc(C(=O)N2CCN(C(=O)c3cccc(C(=O)Nc4cc(-n5cnc(C)c5)cc(C(F)(F)F)c4)c3)CC2)cc1 [Compound 13, 3-(4-(4-Methoxybenzoyl)piperazine-1-carbonyl)-N-(3-(4-methyl-1H-imidazol-1-yl)-5-(trifluoromethyl)-phenyl)benzamide] | – | –
8 | > 50 | > 50 | > 50 | > 50 | > 50 | – | > 50 | O=C(Nc1cccc(C(F)(F)F)c1)c1ccc(C(=O)N2CCN(C(=O)c3cccc(F)c3)CC2)cc1 [Compound 21, 4-(4-(3-Fluorobenzoyl)piperazine-1-carbonyl)-N-(3-(trifluoromethyl)phenyl)benzamide] | > 50 | –
9 | – | – | – | – | – | 299 to 300 | – | CNC(=O)c1cc(Oc2ccc(NC(=O)c3ccc(C(=O)Nc4cc(-n5cnc(C)c5)cc(C(F)(F)F)c4)cc3)cc2)ccn1 [Compound 23, N1-(3-(4-methyl-1H-imidazol-1-yl)-5-(trifluoromethyl)phenyl)-N4-(4-((2-(methylcarbamoyl)pyridin-4-yl)oxy)phenyl)terephthalamide] | – | –
10 | – | – | – | – | – | 72 to 74 | – | COc1ccc(C(=O)N2CCN(C(=O)c3cccc(C(=O)Nc4cccc(C(F)(F)F)c4)c3)CC2)cc1 [Compound 7, 3-(4-(4-Methoxybenzoyl)piperazine-1-carbonyl)-N-(3-(trifluoromethyl)phenyl)benzamide] | – | –
11 | > 50 | > 50 | > 50 | > 50 | > 50 | 215 to 217 | > 50 | O=C(Nc1cccc(C(F)(F)F)c1)c1ccc(C(=O)N2CCN(C(=O)c3ccccc3F)CC2)cc1 [Compound 20, 4-(4-(2-Fluorobenzoyl)piperazine-1-carbonyl)-N-(3-(trifluoromethyl)phenyl)benzamide] | > 50 | –

Row | SMILES | IC50 [1] [µM] | IC50 [2] [µM] | IC50 [3] [µM] | IC50 [5] [µM] | IC50 [6] [µM] | melting point [°C] | IC50 [7] [µM] | IC50 [4] [µM] | also measured
12 | CNC(=O)c1cc(Oc2ccc(NC(=O)Nc3ccc(Cl)c(C(F)(F)F)c3)cc2)ccn1 [Sorafenib, reference compound] | 2.44 ± 0.21 | 8.62 ± 2.24 | 3.37 ± 0.42 | 12.5 ± 1.64 | 7.17 ± 0.5 | – | 5.01 ± 0.14 | 3.48 ± 0.39 | inhibition at 10 µM [11]: 100%; normal live cells (living cells) ([8]; K562, 1 µM): 84.11%; early apoptotic cells ([8]; K562, 5 µM): 36.2%; late apoptotic cells ([8]; K562, 5 µM): 19.57%; normal live cells (living cells) ([8]; K562, 5 µM): 42.32%; necrotic cells ([8]; K562, 10 µM): 5.73%; normal live cells (living cells) ([8]; K562, 10 µM): 26.41%; Apoptosis, % (cell cycle analysis) ([9]; K562, 1 µM): 22.60%; G1, % ([9]; K562, 1 µM): 36.50%; S, % ([9]; K562, 1 µM): 7.72%; Apoptosis, % (cell cycle analysis) ([9]; K562, 5 µM): 44.20%; G1, % ([9]; K562, 5 µM): 33.87%; S, % ([9]; K562, 5 µM): 30.14%; ROS Level, % of Control ([10]; K562, 5 µM): 69.20 % of Control; ROS Level, % of Control ([10]; K562, 10 µM): 79.03 % of Control; ROS Level, % of Control ([10]; K562, 20 µM): 71.59 % of Control; inhibition at 10 µM [12]: 100%
